Results: article PMC7504387, “Antimicrobial and Amyloidogenic Activity of Peptides Synthesized on the Basis of the Ribosomal S1 Protein from Thermus Thermophilus” (International Journal of Molecular Sciences, 2020)
Converted amounts (≈) assume the structure as drawn. “Also recorded” adds a separate entry of the source. Where a SMILES comes first, the peptide text is derived from it. Where no end group is shown, it is not given here. [ ]: non-standard residue; d: D form. Sar = CNCC(=O)O

Experiments:
[1] = system: T. thermophilus cell culture; type: cell-based; conditions: for minimal inhibitory concentration (MIC): optical absorption at 600 nm after 24 h incubation, 5 repeats for R23I, 2 for R23T and V10I
Procedure: UV-Vis spectra were recorded using a spectrophotometr SF-102 (Akvilon, Moscow, Russia). At the end of the incubation, the density of the medium was estimated by spectrophotometry in a cuvette 10 mm with a total volume of 100 μL. The cuvettes were filled with the peptide water solutions and spectra were collected, using a wavelength from 600 nm. Biological activity of peptides was evaluated by their minimum concentration, which that may inhibit the growth of T. thermophilus bacteria culture. Biological activity of peptides was counted by using the following equation: (1) E=1−A (sample with peptide)/A (sample without peptide), where E is a biological activity of peptides, A is an optical absorption after 24 h incubation with and without peptide.
To construct a dose-effect curve and estimate the quantitative parameters of the curves, the statistical environment R and the drc package were used. The choice of model for describing the functional dependence was determined by several parameters: the logarithm of the maximum value of the likelihood function (logLik), the Akaike information criterion (IC), and the residual variance (Res var).
The algorithm for evaluating antimicrobial activity includes the study of this process and the dose–response relationship. The reaction of a biological object determines a quantitative assessment of the antimicrobial effect, depending not only on the concentration of the peptide, but also on the time of its action. Almost any impact begins with a certain threshold. An important final result of the experiment is the assessment of this threshold—the minimum inhibitory concentration (MIC) at which peptide influence is observed.

T. thermophilus cells = assay: Electron microscopy of intact and peptide-treated T. thermophilus cells; type: cell-based
Procedure: Along with the spectrophotometric method for determining the antimicrobial activity of peptides, the viability of cells was evaluated using electron microscopy. […] At the given peptide concentration, cells with a typical morphology and flagella were often found. Many protein aggregates were also observed. The absence of an antimicrobial effect with an increase in the concentration of the peptide to 1000 μg/mL, consistent with the spectrophotometry data of the antimicrobial activity of peptides (Figure 3).
(§1) The presence of amyloid fibrils in the test samples was monitored by transmission electron microscopy (TEM). End-point solutions of peptides were collected and the samples were dissolved in the same solution to 0.2 mg/mL before studying with electron microscopy. A formvar-coated copper grid 400 mesh (Electron Microscopy Sciences, Hatfield, PA, USA) was placed on a 10 μL sample. After 5 min absorption, the grids with the preparation were negatively stained for 1.5–2.0 min with 1% (weight/volume) aqueous solution of uranyl acetate. The excess of the staining agent was removed with filter paper. The preparations were analyzed using a JEM-100C (Jeol, Tokyo, Japan) transmission electron microscope at the accelerating voltage of 80 kV. Images were recorded on the Kodak electron image film (SO-163) at nominal magnification of 40,000–60,000.

[2] = Thioflavine T fluorescence assay of peptide aggregation; type: physicochemical; conditions: ThT 0.2 mM, 37 °C; for amyloids in peptide preparation according to ThT fluorescence: peptide alone; for ThT fluorescence intensity, final: peptide alone 0.2 mM, 1% DMSO, end of kinetics (time axis to 80 min)
Procedure: (§2) Fibrils growth was monitored by thioflavine T (ThT) (Sigma-Aldrich, St. Louis, MO, USA) fluorescence. The kinetics of aggregation of peptides was studied using the method of fluorescence spectroscopy. Each kinetics graph was plotted based on the average of several results measured at different time intervals. To facilitate dissolution, all the samples of peptides were pre-dissolved in 100% DMSO, then buffers 50 mM Tris-HCl, pH 7.5, 150 mM NaCl or 20% acetic acid pH 2.0, 150 mM NaCl were added (1% final concentration DMSO) and filtered through […] membranes to remove small aggregates. ThT is the most commonly used fluorescent dye for the following amyloid formation semi-quantitatively in vitro. Free ThT has excitation and emission maxima at ∼350 and ∼450 nm, respectively (after binding to fibrils, the excitation and emission λmax change to ∼450 and ∼482–485 nm, respectively). A stock solution of ThT was prepared at a concentration of 20 mM in 50 mM Tris-HCl, pH 7.5, 150 mM NaCl or 20% acetic acid pH 2.0, 150 mM NaCl, respectively and stored at 4 °C protected from light. The final concentration of ThT was 0.2 mM, and each peptide was 0.2 mM. ThT was present in the sample during the fibril formation reaction. Measurements of ThT fluorescence were performed on a Cary Eclipse fluorescence spectrophotometer (Varian, Mulgrave, Australia) in quartz cells 3 × 3 mm at 37 °C.

[3] = Transmission electron microscopy of peptide preparations; type: physicochemical; conditions: peptide alone
Procedure: as §1

[4] = system: ribosomal S1 protein from T. thermophilus; assay: Electron microscopy, coaggregation of peptide with S1 protein
Procedure: as §1

[5] = system: ribosomal S1 protein from T. thermophilus; assay: Thioflavine T fluorescence, coaggregation of peptide with S1 protein; conditions: S1:peptide ratios 1:1 and/or 1:5
Procedure: as §2

[6] = peptide:S1 protein ratio 5:1 (S1:peptide = 1:5)

## CC(C)[C@H](NC(=O)CNC(=O)CN(C)C(=O)CNC(=O)CNC(=O)[C@H](CCCNC(=N)N)NC(=O)[C@H](CCCNC(=N)N)NC(=O)[C@H](CCCNC(=N)N)NC(=O)[C@H](CCC(N)=O)NC(=O)[C@H](CCCNC(=N)N)NC(=O)[C@H](CCCNC(=N)N)NC(=O)[C@H](CCCCN)NC(=O)[C@H](CCCCN)NC(=O)[C@@H](N)CCCNC(=N)N)C(=O)N[C@H](C(=O)N[C@@H](CCC(=O)O)C(=O)NCC(=O)N[C@H](C(=O)N[C@H](C(=O)N[C@H](C(=O)N[C@@H](CCC(=O)O)C(=O)N[C@H](C(=O)N[C@H](C(=O)O)[C@@H](C)O)C(C)C)C(C)C)C(C)C)[C@@H](C)O)C(C)C [R23T] (HELM PEPTIDE1{R.K.K.R.R.Q.R.R.R.G.G.[Sar].G.V.V.E.G.T.V.V.E.V.T}$$$$V2.0; N-terminus and C-terminus assumed)
[1]; T. thermophilus culture
  minimal inhibitory concentration (MIC): 500 µg/mL (≈ 193 µM)
T. thermophilus cells; peptide 100 μg/mL
  cell morphology by electron microscopy: did not differ from the control
T. thermophilus cells; peptide 500 μg/mL
  cell morphology by electron microscopy: cells were often damaged
[2]
  amyloids in peptide preparation according to ThT fluorescence: absence of R23T amyloids
[3]; 5 h incubation at 37 °C, 50 mM TrisHCl pH 7.5, 150 mM NaCl
  fibril/aggregate formation by electron microscopy: did not form fibrils, but the aggregates were observed
[4]; peptide:S1 protein ratio 1:1
  morphology of peptide/S1 protein mixture by electron microscopy: aggregates are observed; also recorded: aggregates of different sizes
[4]; [6]
  morphology of peptide/S1 protein mixture by electron microscopy: aggregates of different morphology (type 1 and type 2), fibrils and thin films are formed; also recorded: both the fibrils and films were formed

## NC[C@H]1O[C@H](O[C@H]2[C@H](O)[C@@H](O[C@H]3O[C@H](CO)[C@@H](O)[C@H](N)[C@H]3O)[C@H](N)C[C@@H]2N)[C@H](O)[C@@H](O)[C@@H]1O [kanamycin, reference compound]
[1]; 50 μg/mL in medium, OD 600 nm versus sampling time, DMSO control reached 0.8
  change of optical density of T. thermophilus culture over time: no increase in the optical density
[1]; T. thermophilus culture, OD 600 nm, 24 h, maximum observed, probably a limitation of the method
  effectiveness E = 1 − A(sample with peptide)/A(sample without peptide): ≤ 0.8
[1]; T. thermophilus culture, dose-response curve, log-logistic model
  concentration close to 50% of the inhibition of cell culture growth: ~10 µg/mL

## DFGVFVNLG [D9G, amyloidogenic peptide … based on the ribosomal S1 protein from T. thermophilus]
[1]; T. thermophilus culture, OD 600 nm, 24 h, single repeat
  biological activity (growth inhibition) in the range of studied concentrations: did not show biological activity

## GlyGlySarGlyVTDFGVFVEI [G14I, elongated peptide GlyGlySarGly[…]]
[2]
  ThT fluorescence intensity, final: 80 a.u.
  amyloids in peptide preparation according to ThT fluorescence: presence of amyloids

## GlyGlySarGlyVVEGTVVEVT (GG[Sar]GVVEGTVVEVT) [G14T, elongated peptide GlyGlySarGly…]
[2]
  ThT fluorescence intensity, final: 4 a.u.
  amyloids in peptide preparation according to ThT fluorescence: presence of amyloids
[3]; negative staining, TEM
  aggregate/fibril morphology according to electron microscopy: short dense fibrils
[5]
  amyloids on joint incubation with S1 protein according to ThT fluorescence: presence of amyloids, which tend to disaggregate
[4]; peptide:S1 protein ratio 1:1
  morphology of peptide/S1 protein mixture by electron microscopy: fibrils are not formed

## VTDFGVFVEI [V10I]
[1]; T. thermophilus culture
  minimal inhibitory concentration (MIC): 1000 µg/mL

## VVEGTVVEVT [V10T, unmodified amyloidogenic peptide … based on the ribosomal S1 protein from T. thermophilus]
T. thermophilus cells; peptide 100 μg/mL
  cell morphology by electron microscopy: had no toxic effect
[5]
  amyloids on joint incubation with S1 protein according to ThT fluorescence: presence of amyloids, which tend to disaggregate
[4]; peptide:S1 protein ratio 1:1
  morphology of peptide/S1 protein mixture by electron microscopy: only aggregates are present
[4]; [6]
  morphology of peptide/S1 protein mixture by electron microscopy: both aggregates and fibrils are present; also recorded: led to the formation of fibrils
